IC50 and inhibition data for 18 compounds are collected here from patent US9718817B2, “Aryl and heteroaryl ether compounds as ROR gamma modulators” (Glenmark Pharmaceuticals S.A., priority 2014, dated 2017).

The experiment has as its target T1, GST-tagged ROR gamma ligand binding domain (LBD) (Homo sapiens, UniProt P51449).
T1 construct: purchased Invitrogen
T1 sequence (P51449 269-508 limits assumed): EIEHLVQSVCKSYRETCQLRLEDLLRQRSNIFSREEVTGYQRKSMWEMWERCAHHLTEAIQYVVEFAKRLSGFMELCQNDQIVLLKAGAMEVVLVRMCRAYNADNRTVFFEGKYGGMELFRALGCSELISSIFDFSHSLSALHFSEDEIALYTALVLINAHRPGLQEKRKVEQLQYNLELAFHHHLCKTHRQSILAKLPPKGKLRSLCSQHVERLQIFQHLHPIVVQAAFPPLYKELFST
Description: TR-FRET assay for ROR gamma (LanthaScreen co-activator peptide recruitment). The format is biochemical. To be noted: for IC50: class symbols, from dose response curve; for inhibition at 1 µM: compound 1 μM; for inhibition at 1 µM / inhibition at 10 µM: TR-FRET ratio 520/495, percent of control; for inhibition at 10 µM: compound 10 μM. In a few lines:
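Antagonist mode: 10 nM GST-RORγ LBD pre-incubated with compound 1 h at 22 °C in 25 mM HEPES pH 7.4, 100 mM NaCl, 5 mM DTT, 0.01% BSA, 4% DMSO final. Then 300 nM fluorescein-D22 co-activator peptide plus 10 nM Tb-anti-GST added, 1 h at room temperature. IC50 by nonlinear regression of the 520/495 TR-FRET ratio as percent of no-compound control.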

Structures are written as SMILES.

Regarding `CCS(=O)(=O)c1ccc(CC(=O)Nc2ccc(OC(C)(C)c3ncc(Cl)cc3Cl)c(F)c2)cc1` [Example 95, N-{4-[1-(3,5-Dichloro-pyridin-2-yl)-1-methyl-ethoxy]-3-fluoro-phenyl}-2-(4-ethanesulfonyl-phenyl)-acetamide], the IC50 was less than 50 nM, the inhibition at 1 µM was found to be 75.7% and the inhibition at 10 µM was 77.6%.
The matching figures for `CCS(=O)(=O)c1ccc(CC(=O)Nc2ccc(OC(C)(C)c3ccc(Cl)cc3Cl)c(F)c2)cc1` [Example 96, N-{4-[1-(2,4-Dichloro-phenyl)-1-methyl-ethoxy]-3-fluoro-phenyl}-2-(4-ethanesulfonyl-phenyl)-acetamide]: less than 50 nM, 79.3% and 79.8%.
Consider `CCS(=O)(=O)c1ccc(CC(=O)Nc2ccc(OC(C)(C)c3ccc(F)cc3Cl)c(F)c2)cc1` [Example 97, N-{4-[1-(2-Chloro-4-fluoro-phenyl)-1-methyl-ethoxy]-3-fluoro-phenyl}-2-(4-ethanesulfonyl-phenyl)-acetamide], for which the IC50 is less than 50 nM, the inhibition at 1 µM was 80.8% and the inhibition at 10 µM amounted to 82.1%.
On to `CCS(=O)(=O)c1ccc(CC(=O)Nc2ccc(OC(C)(C)c3ccc(Cl)cc3F)c(F)c2)cc1` [Example 98, N-{4-[1-(4-Chloro-2-fluoro-phenyl)-1-methyl-ethoxy]-3-fluoro-phenyl}-2-(4-ethanesulfonyl-phenyl)-acetamide], for which the inhibition at 1 µM came out at 55% and the inhibition at 10 µM was determined as 49.6%.
In the case of `CCS(=O)(=O)c1ccc(CC(=O)Nc2ccc(OC3(c4ccc(Cl)cc4F)CC3)c(F)c2)cc1` [Example 99, N-{4-[1-(4-Chloro-2-fluoro-phenyl)-cyclopropoxy]-3-fluoro-phenyl}-2-(4-ethanesulfonyl-phenyl)-acetamide], the IC50 was less than 50 nM, the inhibition at 1 µM was 81.7% and the inhibition at 10 µM was 81.1%.
With `CCS(=O)(=O)c1ccc(CC(=O)Nc2ccc(OC3(c4ccc(Cl)c(F)c4)CC3)c(F)c2)cc1` [Example 100, N-{4-[1-(4-Chloro-3-fluoro-phenyl)-cyclopropoxy]-3-fluoro-phenyl}-2-(4-ethanesulfonyl-phenyl)-acetamide], the concentration for half-maximal inhibition (IC50) was less than 50 nM, the inhibition at 1 µM is 79.4% and the inhibition at 10 µM came out at 87.2%.
As for `CCS(=O)(=O)c1ccc(CC(=O)Nc2ccc(OC3(c4ccc(Cl)cc4Cl)COC3)c(F)c2)cc1` [Example 101, N-{4-[3-(2,4-Dichloro-phenyl)-oxetan-3-yloxy]-3-fluoro-phenyl}-2-(4-ethanesulfonyl-phenyl)-acetamide], the IC50 is less than 50 nM, the inhibition at 1 µM amounted to 86.6% and the inhibition at 10 µM worked out at 82.3%.
The matching figures for `CCS(=O)(=O)c1ccc(CC(=O)Nc2ccc(OC3(c4ccc(Cl)c(F)c4)COC3)c(F)c2)cc1` [Example 102, N-{4-[3-(4-Chloro-3-fluoro-phenyl)-oxetan-3-yloxy]-3-fluoro-phenyl}-2-(4-ethanesulfonyl-phenyl)-acetamide]: less than 50 nM, 81.7% and 84%.
`CCS(=O)(=O)c1ccc(CC(=O)Nc2ccc(OC3(c4ccc(Cl)c(F)c4)CCOCC3)c(F)c2)cc1` [Example 103, N-{4-[4-(4-Chloro-3-fluoro-phenyl)-tetrahydro-pyran-4-yloxy]-3-fluoro-phenyl}-2-(4-ethanesulfonyl-phenyl)-acetamide]: the IC50 was less than 50 nM, the inhibition at 1 µM amounted to 73.6% and the inhibition at 10 µM came out at 80.2%.
Take `CCS(=O)(=O)c1ccc(CC(=O)Nc2ccc(OC(C)(C)Cn3ccc4cc(Cl)ccc43)c(F)c2)cc1` [Example 104, N-{4-[2-(5-Chloro-indol-1-yl)-1,1-dimethyl-ethoxy]-3-fluoro-phenyl}-2-(4-ethanesulfonyl-phenyl)-acetamide]: the IC50 lay within 50 to 100 nM, the inhibition at 1 µM is 74.5% and the inhibition at 10 µM is 79.2%.
The matching figures for `CCn1c(C(C)(C)Oc2ccc(NC(=O)Cc3ccc(S(=O)(=O)CC)cc3)cc2F)nc2cc(Cl)ccc21` [Example 105, N-{4-[1-(5-Chloro-1-ethyl-1H-benzoimidazol-2-yl)-1-methyl-ethoxy]-3-fluoro-phenyl}-2-(4-ethanesulfonyl-phenyl)-acetamide]: less than 50 nM, 83.6% and 84.6%.
For `CCS(=O)(=O)c1ccc(CC(=O)Nc2ccc(C#CC(C)(C)Oc3ccc(Cl)c(F)c3)c(F)c2)cc1` [Example 106, N-{4-[3-(4-Chloro-3-fluoro-phenoxy)-3-methyl-but-1-ynyl]-3-fluoro-phenyl}-2-(4-ethanesulfonyl-phenyl)-acetamide] the same measures were less than 50 nM, 81.9% and 85.9%.
Take `CCS(=O)(=O)c1ccc(CC(=O)Nc2ccc(OC(C)(C)c3ccc(F)cc3F)c(F)c2)cc1` [Example 107, N-{4-[1-(2,4-Difluoro-phenyl)-1-methyl-ethoxy]-3-fluoro-phenyl}-2-(4-ethanesulfonyl-phenyl)-acetamide]: the inhibition at 1 µM amounted to 59% and the inhibition at 10 µM is 59.5%.
For `CCS(=O)(=O)c1ccc(CC(=O)Nc2ccc(OC(C)(C)Cn3c(C)cc4cc(F)ccc43)c(F)c2)cc1` [Example 108, 2-(4-Ethanesulfonyl-phenyl)-N-{3-fluoro-4-[2-(5-fluoro-2-methyl-indol-1-yl)-1,1-dimethyl-ethoxy]-phenyl}-acetamide] the same measures were 9.67% and 61.4%.
The matching figures for `CCS(=O)(=O)c1ccc(CC(=O)Nc2cc(F)c(OC(C)(C)c3ccc(Cl)cc3Cl)c(F)c2)cc1` [Example 109, N-{4-[1-(2,4-Dichloro-phenyl)-1-methyl-ethoxy]-3,5-difluoro-phenyl}-2-(4-ethanesulfonyl-phenyl)-acetamide]: 16.6% and 17.2%.
As for `CCS(=O)(=O)c1ccc(CC(=O)Nc2cc(F)c(OC(C)(C)c3ncc(Cl)cc3Cl)c(F)c2)cc1` [Example 110, N-{4-[1-(3,5-Dichloro-pyridin-2-yl)-1-methyl-ethoxy]-3,5-difluoro-phenyl}-2-(4-ethanesulfonyl-phenyl)-acetamide], the inhibition at 1 µM turned out to be 23.7% and the inhibition at 10 µM stood at 47.6%.
Consider `CCn1c(C(C)(C)Oc2ccc(NC(=O)Cc3ccc(S(=O)(=O)CC)cc3)cc2F)nc2cc(F)ccc21` [Example 111, 2-(4-Ethanesulfonyl-phenyl)-N-{4-[1-(1-ethyl-5-fluoro-1H-benzoimidazol-2-yl)-1-methyl-ethoxy]-3-fluoro-phenyl}-acetamide], for which the IC50 was less than 50 nM, the inhibition at 1 µM is 88% and the inhibition at 10 µM came to 86.8%.
As to `CCS(=O)(=O)c1ccc(CC(=O)Nc2ccc3c(c2)nc(C(C)(C)Oc2ccc(F)cc2F)n3CCN(C)C)cc1` [Example 113, N-[2-[1-(2,4-Difluoro-phenoxy)-1-methyl-ethyl]-1-(2-dimethylamino-ethyl)-1H-benzoimidazol-5-yl]-2-(4-ethanesulfonyl-phenyl)-acetamide], the inhibition at 1 µM amounted to 15.6% and the inhibition at 10 µM came out at 52.4%.
